From patent US12171732B2, “Compositions and use of N-chlorotaurine for treatment and prevention of respiratory infections” (priority 2021, dated 2024)
Like-named read-outs stand apart in the source and are kept apart here.

Columns and labels:
[1] = tested on: Influenza A/Singapore/Hongkong/2339/2000 (H1N1); format: cell-based, Influenza A virus
[2] = tested on: SARS-CoV-2 BavPat1; assay: Inactivation of SARS-CoV-2 by NCT, plaque titration; format: cell-based
Method: FIG. 1A presents inactivation of SARS-Cov-2 (BAvPat1) by NCT. Virus suspension (SARS-CoV-2 BavPat1) was incubated with 1.0% (55 mM) NCT, 0.1% (5.5 mM) NCT, 1.0% NCT with 5.0% peptone or PBS or 5.0% peptone for 5 min, 15 min, 30 min, or 60 min at 37° C., after which samples were diluted 1:1 in met/his solution for inactivation of NCT. Remaining infectious virus particles were determined using plaque titration. To control for inactivation of NCT by met/his, virus was added after dilution of 1.0% NCT with or without peptone in met/his. Mean values±SD of three to eight independent experiments in duplicates. The dotted line indicates the detection limit (0.84 log10). Data were statistically analyzed using a two-way ANOVA including a Dunnett's multiple comparison test to PBS controls. *p<0.05, **p<0.01, ***p<0.001, ****p<0.0001.
Inactivation of SARS-CoV-2 wild type isolates from early 2020 was assessed by incubating stock virus with NCT for indicated time periods at 37° C. and then determining the remaining infectious particles using plaque assay or immunostaining as well as determining virus inactivation via RT-qPCR or TCID50. […]
With plaque assay readout, a significant reduction in infectious particles was detected after 15 min of incubation, when incubating SARS-CoV-2 with NCT in a buffered aqueous solution (FIG. 1A). […]

[3] = tested on: SARS-CoV-2 hCoV-19/Australia/VIC01/2020; assay: as above; format: cell-based; details: 1.0% NCT in the presence of Vero cells, 37° C. (FIG. 1B)
Method: FIG. 1B presents inactivation of SARS-Cov-2 (hCoV-19/Australia/VIC01/2020) by NCT. Virus suspension (SARS-CoV-2 h CoV-19/Australia/VIC01/2020) was incubated with NCT or PBS or isopropanol (positive control) for 5 min, 10 min, 20 min, and 60 min at 37° C. and then diluted 1:1 in met/his for inactivation of NCT, followed by plaque titration. Mean values±SD of three independent experiments. Detection limit 3.11 log10 (dotted line).
(§1) Inactivation of SARS-CoV-2 wild type isolates from early 2020 was assessed by incubating stock virus with NCT for indicated time periods at 37° C. and then determining the remaining infectious particles using plaque assay or immunostaining as well as determining virus inactivation via RT-qPCR or TCID50. Exact incubation times of virus with NCT were ensured by adding met/his at the end of the incubation period, which inactivates NCT.
With plaque assay readout, a significant reduction in infectious particles was detected after 15 min of incubation, when incubating SARS-CoV-2 with NCT in a buffered aqueous solution (FIG. 1A). The mild oxidizing activity of the test antiseptic may explain why it took as long as 15 min to reduce infectious particles. In the presence of Vero cells (FIG. 1B) or particularly 5.0% peptone (FIG. 1A), however, a significant reduction of infectious virus particles occurred already after 5 min of incubation with 1.0% NCT. […]

[4] = tested on: SARS-CoV-2, clinical isolate; assay: Virus inactivation assay with immunostaining readout (Vero/TMPRSS2/ACE2 cells); format: cell-based; details: 1% NCT, 37° C.
Method: (§2) FIG. 1C presents inactivation of SARS-Cov-2 (SARS-CoV-2, clinical isolate) by NCT. Virus suspension (SARS-CoV-2, clinical isolate) was incubated with 1% NCT or PBS for 1 min, 5 min, 7 min, 10 min, 20 min, and 30 min at 37° C. After inactivation of NCT and serial dilution, aliquots were added to Vero/TMPRSS2/ACE2 cells for 1 h in 96-well plates. Cells were washed, incubated for further 9 h, and fixed for Immunostaining (c) or RT-qPCR (d). In immunostaining, infected cells were visible as red spots and counted using an ImmunoSpot S6 Ultra-V reader and CTL analyser BioSpot® 5.0 software. Mean values±SD of three independent experiments.
as §1

[5] = tested on: SARS-CoV-2, clinical isolate; assay: Virus inactivation assay with RT-qPCR readout (SARS-CoV-2 E Gene); format: cell-based; details: 1% NCT, 37° C., RT-qPCR (FIG. 1D)
Method: as §2
FIG. 1D presents inactivation of SARS-Cov-2 by NCT. After cell lysis and RNA extraction, one-step RT-qPCR assay was performed using the iTaq™ RT-PCR (BIO-RAD) kit and previously published primers and probes specific for detection of the SARS-CoV-2 E Gene on a CFX96™ real-time system (BIO-RAD). Mean values±SD of genome copies of three independent experiments. Detection limit 2.10 log10 RNA copies/ml (dotted line).

[6] = tested on: inoculated cell culture; assay: MTT testing of cytotoxicity of inactivated NCT; format: cell-based; details: 0.1% NCT plus 0.1% met/his (inactivated NCT); PBS control 100.3±5.6
Description: The antiviral activity was concentration-dependent. […] This was valid for all tests and viruses in this study.

[7] = tested on: Influenza A/Panama/2007/1999 (H3N2); format: cell-based, Influenza A virus; details: 1.0% NCT, within 5 min, plaque assay (FIG. 2A)
[8] = tested on: Influenza A/California/Swine Origin Virus/2009 (H1N1pdm); format: cell-based; details: 1.0% NCT
[9] = tested on: RSV long strain; format: cell-based, respiratory syncytial virus
[10] = target: SARS-CoV-2 3C-like proteinase (Severe acute respiratory syndrome coronavirus 2, UniProt P0DTD1); assay: Structural changes of 3C-like proteinase by NCT, mass spectrometry; format: biochemical; details: 1% NCT, 30 min, 37° C.
Description: FIG. 5 presents Chlorination of tyrosines and histidines and oxidation of methionines and cysteines of SARS-CoV-2 3C-like proteinase by NCT.
Seven methionines and four cysteines were oxidized.

[11] = tested on: SARS-CoV-2; format: in vivo, human
[12] = tested on: SARS-CoV-2; assay: Prophylaxis of contact persons with 1% NCT nose/throat spray; format: in vivo, human
Method: NCT may also be applied as nose/throat spray/rinse solution for prevention/prophylaxis of worsening or contagiousity to other persons. Even in case of low or no symptoms, 1% NCT aqueous solution may be used as a nose spray (two-three puffs (about 0.1 ml/puff) per nostril during forced nasal inspiration) and/or throat spray (three-four puffs (about 0.1 ml/puff) in the back of the mouth to the throat). Alternatively, 1% NCT aqueous solution may be used as a nasal rinse (10 ml to 20 ml instilled for 30 seconds up to 1 minute) and/or throat gargling solution (10 ml to 20 ml for 30 seconds up to 1 minute). This may be repeated at least two times per day or after close contact with other persons.
Spouse, person. (Day 7 of spouse's infection) dose time and symptoms: 2:10 PM—No symptoms 8:25 PM—No symptoms. (Day 8 of spouse's infection) dose time and symptoms: 2:40 PM—No symptoms 11:30 PM—No symptoms. (Day 9 of spouse's infection) dose time and symptoms: 11:10 AM—No symptoms 7:15 P. No symptoms.

[13] = tested on: SARS-CoV-2; assay: Treatment of hospitalized COVID-19 patients with NCT solution for inhalation; format: in vivo, human
Method: The effect of an inhalation solution of NCT-Na is tested in patients who suffer from COVID-19 (infection with SARS-CoV-2). The solution consists of 1% NCT sodium in distilled water.

[14] = cited from earlier work
[15] = after the end of an inhalation of 1.0% NCT, cited from earlier work
[16] = in vivo; cited from earlier work

Structure (SMILES): Cl.N [Ammonium chloride, ammonium chloride, reference compound]
- antiviral effect ([1]; ammonium chloride alone, up to 10 min incubation time): no antiviral effect

Structure (SMILES): O=S(=O)(O)CCNCl [NCT, N-chlorotaurine]
- incubation time after which a significant reduction of infectious virus particles occurred ([2]; 1.0% NCT in the presence of 5.0% peptone, 37° C. (FIG. 1A)): 5 min
- incubation time after which a significant reduction in infectious particles was detected ([2]; NCT in buffered aqueous solution, 37° C., plaque assay (FIG. 1A)): 15 min
- incubation time after which a significant reduction of infectious virus particles occurred [3]: 5 min
- reduction of infected cells ([4]; after 1 min (not significant, p=0.085)): 50%
- reduction of infected cells ([4]; after 5 min): 20-80%
- reduction of infected cells ([4]; after 7 min): 81-91%
- reduction of infected cells ([4]; after 10 min): 81-97%
- reduction of infected cells ([4]; after 20 min): 96-99%
- reduction of infected cells ([4]; after 30 min): > 99%
- reduction of genome copies [5]: highly significant reduction of genome copies
- MTT reduction [6]: 94.1±8.5
- log10 reduction of virus [7]: 2 log10
- time to reduction to the detection limit [8]: ≤ 1 min
- log10 reduction of virus ([8]; within 1 min, plaque assay (FIG. 2B)): 6 log10
- effect of addition of ammonium chloride (NH4Cl) on activity against influenza viruses ([1]; 0.1% NCT plus 0.1% ammonium chloride versus 0.1% NCT (FIG. 2D)): significantly enhanced
- time to reduction to the detection limit ([1]; 1.0% NCT): ≤ 1 min
- log10 reduction of virus ([1]; 1.0% NCT, within 1 min, plaque assay (FIG. 2C)): 6 log10
- incubation time to significant titre reduction ([9]; 0.1% NCT, 37° C.): 15 min
- infectious RSV measurable ([9]; 1.0% NCT, after 15 minutes): Almost no detectable amount of infectious RSV
- log10 decrease of infectious virus titre ([9]; 1.0% NCT, within 5 minutes, 37° C. (FIG. 3)): 4 log10
- cysteines oxidized [10]: four
- histidines chlorinated [10]: two
- methionines oxidized [10]: Seven
- tyrosines chlorinated [10]: 3
- PCR of nose and throat smear, positive after cycles ([11]; Example 1 patient, Day 0, two hours after start of 1% NCT nasal spray and gargling): 30-32 cycles
- PCR of throat/nostril swab, positive after cycles ([11]; Example 1 patient, Day 3, after 1% NCT therapy was stopped): 25 cycles
- complaints ([11]; Example 1 patient, Day 4 to Day 11, after 1% NCT therapy Day 0 to Day 2): no complaints
- PCR of nose-throat smear, positive after cycles ([11]; Example 1 patient, Day 6): 27 cycles
- throat and nasal smear control PCR, weakly positive after cycles ([11]; Example 1 patient, Day 13 (max cycle number 45)): 36.5 cycles
- throat and nasal smear control PCR ([11]; Example 1 patient, Day 19): negative
- swab PCR ct value ([11]; Example 2 patient, Day 1 evening, two hours after dosing, 14 cycles before NCT treatment): 20-22 cycles
- swab result ([11]; Example 2 patient, after 10 days quarantine): swab negative
- swab PCR ct value ([11]; Example 2 patient, evening of day 4, 1% NCT nose spray and gargling 3× daily): 31-34 cycles
- swab PCR ct value ([11]; Example 2 patient, morning of Day 6, 14 hours after the last dosing of NCT): 31-34 cycles
- symptoms ([11]; Example 4 patient, Day 10, 1% NCT nasal and throat spray since Day 4): No symptoms
- infection status of family members ([12]; Example 2: wife and three teenagers in the same home, 1% NCT nose and throat spray 3 times daily): remained negative
- symptoms of spouse ([12]; Example 4: spouse, Day 7 to Day 9 of husband's infection): No symptoms
- infection status of persons with close contact to COVID-19 positive persons ([12]; several cases, use of the 1% NCT nasal spray): remained negative
- course of disease during treatment ([13]; another 20 hospitalized patients, same treatment): no progression of the disease and lung failure was avoided
- outcome on leaving the hospital ([13]; eight hospitalized patients, 3 ml 1% NCT sodium inhaled 3 times a day for 1 week to 9 days via nebulizer): symptom-free or largely symptom-free
- systemic distribution ([14]; human, in vivo): not distributed systemically
- adverse effects ([14]; inhaled NCT, humans, phase I, chlorine taste and occasional tickle in the throat): Only minor and transient adverse effects
- further time until active chlorine vanishes completely ([15]; after decrease to traces): 10 min
- time for concentration of active chlorine to decrease to traces [15]: ≤ 1 min

Structure (SMILES): Cc1ccc(S(=O)(=O)[N-]Cl)cc1.[Na+] [chloramine T]
- effects after inhalative application [16]: asthmatic and inflammatory symptoms
